{
  "source": "patent US20230113802A1",
  "about": "“COMPOSITION AND METHOD TO PREPARE LONG-ACTING INJECTABLE SUSPENSION CONTAINING MULTIPLE CANCER DRUGS” (University of Washington, priority 2020, published 2023)",
  "format_in_all_cases": "in vivo, BALB/c mice",
  "key": {"[1]": {"experiment": "Pharmacokinetic study of GT in DcNPs compared to CrEL (Example 2), plasma G, T and dFdU", "details": "for concentration at 3 h / MRT / Vd / AUC(0-inf) / C0: female, BALB/c, mouse, plasma; for concentration at 3 h: intravenous; for MRT / Vd / AUC(0-inf) / C0: iv; for MRT / Vd: 5 mg/kg; for MRT: read-out: MRT (mean residence time); for Vd: read-out: Vss; for C0: read-out: C0 (concentration at time 0, back extrapolated)", "text": "Drugs extracted from biological matrices such as plasma or tissue homogenates were quantified by a Shimadzu HPLC system coupled to a 3200 QTRAP mass spectrometer (Applied Biosystems, Grand Island, N.Y.). The HPLC system consisted of two Shimadzu LC-20A pumps, a DGU-20A5 degasser, and a Shimadzu SIL-20AC HT autosampler. The mass spectrometer was equipped with an electrospray ionization (ESI) TurbolonSpray source. The system was operated with Analyst software, version 1.5.2 (ABSciex, Framingham, Mass.). Chromatographic separation of G and T was achieved using a Synergi column (100×2.0 mm; 4-μm particle size) (Phenomenex, Torrance, Calif.) with an inline C8 guard column (4.0×2.0 mm) also from Phenomenex. The flow rate was set to 0.5 mL/min with a 5 μl sample injection volume. The mobile phase for separation consisted of pump A (20 mM Ammonium Acetate in water) and B (Reagent Alcohol). […] The needle was washed with isopropanol after each injection. Analytes were monitored using multiple-reaction monitoring (MRM) for positive ions.\nStatistical comparisons were performed using 2-sided t-tests with Welch's correction for unequal variances. Significance probability α was set at 0.05. Pharmacokinetic parameters from non-compartmental analysis were calculated using the trapezoidal rule and relevant pharmacokinetic equations shown in Table 3."}, "[2]": {"experiment": "GT localization in healthy versus 4T1 tumor bearing lung tissue", "details": "for concentration at 1 h / concentration at 24 h / Kp at 1 h: female, BALB/c, mouse, intravenous; for concentration at 24 h: 24 hours after DcNP; for Kp at 1 h: lung/plasma, read-out: Lung/Plasma Ratio", "procedure": "Female BALB/c mice were injected with 2×10^5 4 T1 metastatic breast cancer cells that express luciferase as a marker intravenously by tail vein on day 0. Stable expression of luciferase in these cells allows for bioluminescent monitoring of tumor growth and metastasis. Over a 14-day period, mouse behavior and health conditions were monitored daily and body weight measurements were taken every 2 days. […] The bioluminescence imaging was acquired through a XENOGEN IVIS 200 imaging system (PerkinElmer, Waltham, Mass.). The bioluminescence imaging parameters for live mice were set as follows: field of view, 24; excitation filter, closed; emission filter, open; exposure time, 180 sec; binning factor, 4; f/stop, 2. Bioluminescence intensity from mice were integrated using Live Image software (PerkinElmer, Waltham, Mass.). Mice were then intravenously administered GT in DcNPs at a dose of 50 mg/kg G and 5 mg/kg T or the same dose of drug in control suspension (CrEL) and sacrificed at fixed time points.\nTo determine whether DcNPs enhance GT distribution into target tissues, namely cancer nodules, the differential localization of GT in DcNP or CrEL form in healthy versus cancer nodule bearing mice was investigated. Since lungs are a common metastatic site for breast cancer disease progression, a model for metastasis that forms cancer nodules in the lungs was used. Cancer nodules were established in female BALB/c mice via intravenous inoculation of syngeneic breast cancer cells (4T1). […] Once nodules were established and confirmed with IVIS imaging, mice were administered with GT in either DcNP or conventionally solubilized form at equivalent doses (50/5 mg/kg, GT) and euthanized at pre-determined time intervals. Nodule-free and nodule-bearing lungs were harvested, and lung tissue drug concentrations were compared in these two groups."}, "[3]": {"experiment": "Pharmacokinetic study of GT DcNP vs CrEL drug combination in mice (Example 1)", "details": "GT 50/5 mg/kg IV; for Cmax / AUC(0-t) / t1/2apparent: plasma; for AUC(0-t): iv", "procedure": "Mice were administered with either a CrEL drug combination or GT DcNP intravenously with doses of 50/5 mg/kg GT. […] Each group had three animals and each animal was bled once only. Retro-orbital blood collection in this study was a terminal procedure and animals were under anesthesia at the time of bleeding. After blood collection, mice were euthanized by CO2 overdose followed by cervical dislocation as the secondary method of euthanasia. Drugs in plasma were extracted and analyzed by LC-MS/MS as described below.\nA liquid-liquid extraction was used to extract drugs from plasma or tissue homogenates. […] Samples were spiked by internal standards (see below) followed by the addition of acetonitrile. […] The dried samples were reconstituted in 20% methanol and 80% water in 50 μL.\nDrugs were quantified by a Shimadzu HPLC system coupled to a 3200 QTRAP mass spectrometer (Applied Biosystems, Grand Island, N.Y.). The HPLC system consisted of two Shimadzu LC-20A pumps, a DGU-20A5 degasser, and a Shimadzu SIL-20AC HT autosampler. The mass spectrometer was equipped with an electrospray ionization (ESI) TurbolonSpray source. The system was operated with Analyst software, version 1.5.2 (ABSciex, Framingham, Mass.).\nChromatographic separation of drugs was achieved using a Synergi column (100×2.0 mm; 4-μm particle size) with an inline C8 guard column (4.0×2.0 mm) (Phenomenex, Torrance, Calif.). An ammonium acetate buffer/reagent alcohol gradient was used to separate components. Analytes were monitored using multiple-reaction monitoring for positive ions."}, "[4]": {"details": "Control (CrEL suspension), 50/5 mg/kg G/T IV, mice"}, "[5]": {"details": "GT DcNP, 50/5 mg/kg G/T IV, mice"}},
  "note": "Where two headings read alike, the source gives them in different places.",
  "data": [
    {"smiles": "CC(=O)O[C@H]1C(=O)[C@@]2(C)[C@H]([C@H](OC(=O)c3ccccc3)[C@]3(O)C[C@H](OC(=O)[C@H](O)[C@@H](NC(=O)c4ccccc4)c4ccccc4)C(C)=C1C3(C)C)[C@]1(OC(C)=O)CO[C@@H]1C[C@@H]2O", "note": "[Paclitaxel, [(1S,2S,3R,4S,7R,9S,10S,12R,15S)-4,12-diacetyloxy-15-[(2R,3S)-3-benzamido-2-hydroxy-3-phenylpropanoyl]oxy-1,9-dihydroxy-10,14,17,17-tetramethyl-11-oxo-6-oxatetracyclo[11.3.1.0^3,10.0^4,7]heptadec-13-en-2-yl] benzoate]", "values": [
      {"measurement": "plasma concentration at 3 hours, DcNP times greater than CrEL", "setting": "[1]; 50/5 mg/kg G/T IV, mice", "value": 3.3, "unit": "times"},
      {"measurement": "Dose/AUC (apparent clearance)", "setting": "[1]; [4]", "value": 38.3, "unit": "mL/h"},
      {"measurement": "T1/2,app", "setting": "[1]; [4]", "value": 1.8, "unit": "h"},
      {"measurement": "Dose/AUC (apparent clearance)", "setting": "[1]; [5]", "value": 10.2, "unit": "mL/h"},
      {"measurement": "T1/2,app", "setting": "[1]; [5]", "value": 2.0, "unit": "h"},
      {"measurement": "concentration at 3 h", "setting": "[1]; after GT DcNP dosing, 50/5 mg/kg G/T IV, mice", "value": 643, "unit": "ng/mL"},
      {"measurement": "concentration at 3 h", "setting": "[1]; after control CrEL dosing, 50/5 mg/kg G/T IV, mice", "value": 194, "unit": "ng/mL"},
      {"measurement": "MRT", "setting": "[1]; [4]", "value": 1, "unit": "h"},
      {"measurement": "Vd", "setting": "[1]; [4]", "value": 0.0356, "unit": "L"},
      {"measurement": "MRT", "setting": "[1]; [5]", "value": 1, "unit": "h"},
      {"measurement": "Vd", "setting": "[1]; [5]", "value": 0.01, "unit": "L"},
      {"measurement": "AUC(0-inf)", "setting": "[1]; [4]", "value": 2610, "unit": "ng·h/mL"},
      {"measurement": "C0", "setting": "[1]; [4]", "value": 17700, "unit": "ng/mL"},
      {"measurement": "AUC(0-inf)", "setting": "[1]; [5]", "value": 9810, "unit": "ng·h/mL"},
      {"measurement": "C0", "setting": "[1]; [5]", "value": 13900, "unit": "ng/mL"},
      {"measurement": "time over which concentrations in plasma were detected", "setting": "[1]; mice administered GT DcNPs, 48-hour study", "value": "≤ 6", "unit": "h"},
      {"measurement": "plasma concentration by 24 hours", "setting": "[1]; mice treated with the CrEL control formulation", "value": "fell below the detection limit"},
      {"measurement": "lung concentration, cancer nodule bearing mice times greater than healthy mice", "setting": "[2]; 24 hours after GT DcNP", "value": 7, "unit": "times"},
      {"measurement": "concentration at 1 h", "setting": "[2]; lung, 1 hour after DcNP, 4T1 tumor bearing mice, read-out: Lung", "value": "900 ± 500", "unit": "ng/g"},
      {"measurement": "concentration at 1 h", "setting": "[2]; lung, 1 hour after DcNP, Healthy mice, 50/5 mg/kg GT IV, read-out: Lung", "value": "600 ± 400", "unit": "ng/g"},
      {"measurement": "concentration at 1 h", "setting": "[2]; lung, 1 hour after control (CrEL), 4T1 tumor bearing mice, 50/5 mg/kg GT IV, read-out: Lung", "value": "1700 ± 500", "unit": "ng/g"},
      {"measurement": "concentration at 1 h", "setting": "[2]; lung, 1 hour after control (CrEL), Healthy mice, 50/5 mg/kg GT IV, geometric mean ± SD, read-out: Lung", "value": "1000 ± 300", "unit": "ng/g"},
      {"measurement": "concentration at 24 h", "setting": "[2]; lung, 4T1 tumor bearing mice, read-out: Lung", "value": "400 ± 100", "unit": "ng/g"},
      {"measurement": "concentration at 24 h", "setting": "[2]; lung, Healthy mice, read-out: Lung", "value": "60 ± 10", "unit": "ng/g"},
      {"measurement": "Kp at 1 h", "setting": "[2]; 1 hour after DcNP, 4T1 tumor bearing mice", "value": "0.4 ± 0.2"},
      {"measurement": "Kp at 1 h", "setting": "[2]; 1 hour after DcNP, Healthy mice", "value": "0.4 ± 0.01"},
      {"measurement": "Kp at 1 h", "setting": "[2]; 1 hour after control (CrEL), 4T1 tumor bearing mice", "value": "2.5 ± 0.8"},
      {"measurement": "Kp at 1 h", "setting": "[2]; 1 hour after control (CrEL), Healthy mice", "value": "3.3 ± 1.2"},
      {"measurement": "concentration at 1 h", "setting": "[2]; plasma, 1 hour after DcNP, 4T1 tumor bearing mice, read-out: Plasma", "value": "2200 ± 1100", "unit": "ng/mL"},
      {"measurement": "concentration at 1 h", "setting": "[2]; plasma, 1 hour after DcNP, Healthy mice, read-out: Plasma", "value": "1400 ± 900", "unit": "ng/mL"},
      {"measurement": "concentration at 1 h", "setting": "[2]; plasma, 1 hour after control (CrEL), 4T1 tumor bearing mice, read-out: Plasma", "value": "700 ± 100", "unit": "ng/mL"},
      {"measurement": "concentration at 1 h", "setting": "[2]; plasma, 1 hour after control (CrEL), Healthy mice, read-out: Plasma", "value": "300 ± 50", "unit": "ng/mL"},
      {"measurement": "decrease in Cmax, GT DcNP compared to CrEL", "setting": "[3]", "value": "~21", "unit": "%"},
      {"measurement": "Cmax", "setting": "[3]; female, BALB/c, mouse, given in CrEL drug dosage form, read-out: Cmax", "value": 17700, "unit": "ng/mL"},
      {"measurement": "AUC(0-t)", "setting": "[3]; female, BALB/c, mouse, given in CrEL drug dosage form", "value": 2490, "unit": "ng·h/mL"},
      {"measurement": "AUC(0-t)", "setting": "[3]; female, BALB/c, mouse, given in DcNP dosage form", "value": 9810, "unit": "ng·h/mL"},
      {"measurement": "t1/2apparent", "setting": "[3]; given in CrEL drug dosage form", "value": 1.81, "unit": "h"},
      {"measurement": "Cmax", "setting": "[3]; given in DcNP dosage form", "value": 13900, "unit": "ng/mL"},
      {"measurement": "t1/2apparent", "setting": "[3]; given in DcNP dosage form", "value": 1.97, "unit": "h"}
    ]}
  ]
}
